The text below walks through data of ChEMBL document CHEMBL4507268 (2021).

Experiment [1] concerns the target Tyrosine-protein kinase receptor UFO (Homo sapiens) (UniProt P30530). To be noted: Compound concentration 1000.0 nM.
The target in experiment [2] is Calcium/calmodulin-dependent protein kinase kinase 1 (Homo sapiens) (UniProt Q8N5S9). The following applies: Compound concentration 1000.0 nM.
The target in experiment [3] is Serine/threonine-protein kinase MARK1 (Homo sapiens) (UniProt Q9P0L2). The following applies: Compound concentration 1000.0 nM.
In experiment [4] the target is Protein kinase C theta type (Homo sapiens) (UniProt Q04759). The following applies: Compound concentration 1000.0 nM.
The target of experiment [5] is Serine/threonine-protein kinase 38-like (Homo sapiens) (UniProt Q9Y2H1). The following applies: Compound concentration 1000.0 nM.
For experiment [6], the target named is GABA-A receptor; anion channel (Rattus norvegicus) (UniProt O09028+P15431+P18506+P18508+P19969+P20236+P23574+P23576+P28471+P28473+P30191+P62813+P63079+P63138+Q91ZM7+Q9ES14). The following applies: Compound concentration 10.0 uM.
Experiment [7] relates to Epidermal growth factor receptor (Homo sapiens), P00533 [T790M]. The following applies: Compound concentration 1000.0 nM.
Experiment [8] addresses T1, Serine/threonine-protein kinase TAO2 (Homo sapiens) (UniProt Q9UL54).
T1 sequence (whole entry): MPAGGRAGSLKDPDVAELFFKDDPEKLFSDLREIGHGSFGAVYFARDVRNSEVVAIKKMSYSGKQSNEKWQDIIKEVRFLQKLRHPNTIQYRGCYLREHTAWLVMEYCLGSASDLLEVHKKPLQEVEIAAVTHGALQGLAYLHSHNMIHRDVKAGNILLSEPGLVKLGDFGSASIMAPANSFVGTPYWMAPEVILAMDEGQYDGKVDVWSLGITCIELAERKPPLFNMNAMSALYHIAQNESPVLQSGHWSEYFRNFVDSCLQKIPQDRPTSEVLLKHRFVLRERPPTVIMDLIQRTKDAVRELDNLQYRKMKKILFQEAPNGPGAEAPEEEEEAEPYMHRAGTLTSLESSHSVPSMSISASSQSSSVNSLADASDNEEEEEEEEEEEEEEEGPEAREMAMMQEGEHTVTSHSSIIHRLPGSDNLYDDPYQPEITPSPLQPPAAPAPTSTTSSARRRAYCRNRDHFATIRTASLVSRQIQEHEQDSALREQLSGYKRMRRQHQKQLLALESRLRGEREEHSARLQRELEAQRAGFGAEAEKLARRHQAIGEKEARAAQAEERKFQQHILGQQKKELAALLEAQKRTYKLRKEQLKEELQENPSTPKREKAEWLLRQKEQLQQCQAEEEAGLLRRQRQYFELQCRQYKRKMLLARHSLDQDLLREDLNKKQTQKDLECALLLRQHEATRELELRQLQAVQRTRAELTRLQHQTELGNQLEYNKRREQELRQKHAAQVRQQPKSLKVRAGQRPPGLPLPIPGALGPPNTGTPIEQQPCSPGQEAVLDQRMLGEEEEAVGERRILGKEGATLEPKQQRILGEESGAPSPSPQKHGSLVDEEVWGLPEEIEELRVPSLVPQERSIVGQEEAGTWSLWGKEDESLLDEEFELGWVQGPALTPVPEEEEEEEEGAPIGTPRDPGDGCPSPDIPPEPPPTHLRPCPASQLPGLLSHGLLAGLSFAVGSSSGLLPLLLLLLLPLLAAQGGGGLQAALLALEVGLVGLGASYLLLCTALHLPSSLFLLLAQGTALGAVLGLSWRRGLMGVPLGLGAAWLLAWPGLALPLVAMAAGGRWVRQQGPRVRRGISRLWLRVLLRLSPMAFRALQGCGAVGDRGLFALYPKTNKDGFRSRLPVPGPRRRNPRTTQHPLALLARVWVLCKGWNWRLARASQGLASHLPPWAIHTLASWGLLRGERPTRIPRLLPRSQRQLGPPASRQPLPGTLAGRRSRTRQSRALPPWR
To be noted: Compound concentration 1000.0 nM.

Experiment [9] has as its target Tyrosine-protein kinase Fyn (Homo sapiens) (UniProt P06241). To be noted: Compound concentration 1000.0 nM.
The target in experiment [10] is Mitogen-activated protein kinase 11 (Homo sapiens) (UniProt Q15759). The following applies: Compound concentration 1000.0 nM.
Experiment [11] deals with Protein kinase C eta type (Homo sapiens) (UniProt P24723). The following applies: Compound concentration 1000.0 nM.
The subject of experiment [12] is Receptor-type tyrosine-protein kinase FLT3 (Homo sapiens), P36888 [UNDEFINED MUTATION]. The following applies: Compound concentration 1000.0 nM.
The target of experiment [13] is Tyrosine-protein kinase JAK2 (Homo sapiens) (UniProt O60674). The following applies: Compound concentration 1000.0 nM.
Experiment [14] deals with Glycogen synthase kinase-3 alpha (Homo sapiens) (UniProt P49840). The following applies: Compound concentration 1000.0 nM.
In experiment [15] the target is T2, Dual specificity mitogen-activated protein kinase kinase 7 (Homo sapiens) (UniProt O14733).
T2 sequence (whole entry): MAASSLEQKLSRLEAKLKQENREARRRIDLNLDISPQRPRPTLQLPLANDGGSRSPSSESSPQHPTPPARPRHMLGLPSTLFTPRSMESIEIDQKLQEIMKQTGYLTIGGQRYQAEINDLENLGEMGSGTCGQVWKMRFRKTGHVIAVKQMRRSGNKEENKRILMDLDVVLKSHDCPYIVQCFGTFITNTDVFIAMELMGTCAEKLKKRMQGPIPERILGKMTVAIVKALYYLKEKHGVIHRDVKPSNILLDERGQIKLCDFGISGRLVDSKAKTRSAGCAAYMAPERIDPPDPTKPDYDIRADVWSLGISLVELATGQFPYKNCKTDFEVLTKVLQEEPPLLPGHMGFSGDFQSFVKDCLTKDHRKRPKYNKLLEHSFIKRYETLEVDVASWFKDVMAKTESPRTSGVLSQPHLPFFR
To be noted: Compound concentration 1000.0 nM.

Experiment [16] concerns the target Tyrosine-protein kinase ABL1 (Homo sapiens) (UniProt P00519). The following applies: Compound concentration 1000.0 nM.
For experiment [17], the system named is Epidermal growth factor receptor (Homo sapiens), P00533 [UNDEFINED MUTATION]. To be noted: Compound concentration 1000.0 nM.
Experiment [18] addresses Serine/threonine-protein kinase MRCK gamma (Homo sapiens) (UniProt Q6DT37). The following applies: Compound concentration 1000.0 nM.

Serine/threonine-protein kinase MARK1 (Homo sapiens), sequence (Q9P0L2 whole entry, looked up): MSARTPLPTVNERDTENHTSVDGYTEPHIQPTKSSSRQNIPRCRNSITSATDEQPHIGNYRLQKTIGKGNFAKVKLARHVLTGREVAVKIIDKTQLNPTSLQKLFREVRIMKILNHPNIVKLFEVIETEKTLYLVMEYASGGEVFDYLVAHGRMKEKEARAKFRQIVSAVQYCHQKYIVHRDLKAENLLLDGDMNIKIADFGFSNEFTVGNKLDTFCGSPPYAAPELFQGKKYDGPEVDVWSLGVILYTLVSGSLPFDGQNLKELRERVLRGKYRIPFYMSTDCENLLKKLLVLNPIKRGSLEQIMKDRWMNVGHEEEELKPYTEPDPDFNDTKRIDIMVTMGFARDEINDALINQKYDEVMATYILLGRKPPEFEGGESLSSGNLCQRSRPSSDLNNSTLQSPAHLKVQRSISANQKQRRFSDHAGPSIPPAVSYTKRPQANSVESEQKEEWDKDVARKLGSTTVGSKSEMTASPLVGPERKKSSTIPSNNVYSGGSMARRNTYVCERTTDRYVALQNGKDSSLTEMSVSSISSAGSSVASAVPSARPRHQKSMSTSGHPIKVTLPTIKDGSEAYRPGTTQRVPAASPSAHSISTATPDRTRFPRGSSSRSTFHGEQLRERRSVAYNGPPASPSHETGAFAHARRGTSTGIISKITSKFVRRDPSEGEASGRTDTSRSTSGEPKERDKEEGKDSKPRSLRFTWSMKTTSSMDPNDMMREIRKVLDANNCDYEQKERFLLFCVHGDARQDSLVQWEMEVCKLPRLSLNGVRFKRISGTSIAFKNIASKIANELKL
Tyrosine-protein kinase JAK2 (Homo sapiens), sequence (O60674 whole entry): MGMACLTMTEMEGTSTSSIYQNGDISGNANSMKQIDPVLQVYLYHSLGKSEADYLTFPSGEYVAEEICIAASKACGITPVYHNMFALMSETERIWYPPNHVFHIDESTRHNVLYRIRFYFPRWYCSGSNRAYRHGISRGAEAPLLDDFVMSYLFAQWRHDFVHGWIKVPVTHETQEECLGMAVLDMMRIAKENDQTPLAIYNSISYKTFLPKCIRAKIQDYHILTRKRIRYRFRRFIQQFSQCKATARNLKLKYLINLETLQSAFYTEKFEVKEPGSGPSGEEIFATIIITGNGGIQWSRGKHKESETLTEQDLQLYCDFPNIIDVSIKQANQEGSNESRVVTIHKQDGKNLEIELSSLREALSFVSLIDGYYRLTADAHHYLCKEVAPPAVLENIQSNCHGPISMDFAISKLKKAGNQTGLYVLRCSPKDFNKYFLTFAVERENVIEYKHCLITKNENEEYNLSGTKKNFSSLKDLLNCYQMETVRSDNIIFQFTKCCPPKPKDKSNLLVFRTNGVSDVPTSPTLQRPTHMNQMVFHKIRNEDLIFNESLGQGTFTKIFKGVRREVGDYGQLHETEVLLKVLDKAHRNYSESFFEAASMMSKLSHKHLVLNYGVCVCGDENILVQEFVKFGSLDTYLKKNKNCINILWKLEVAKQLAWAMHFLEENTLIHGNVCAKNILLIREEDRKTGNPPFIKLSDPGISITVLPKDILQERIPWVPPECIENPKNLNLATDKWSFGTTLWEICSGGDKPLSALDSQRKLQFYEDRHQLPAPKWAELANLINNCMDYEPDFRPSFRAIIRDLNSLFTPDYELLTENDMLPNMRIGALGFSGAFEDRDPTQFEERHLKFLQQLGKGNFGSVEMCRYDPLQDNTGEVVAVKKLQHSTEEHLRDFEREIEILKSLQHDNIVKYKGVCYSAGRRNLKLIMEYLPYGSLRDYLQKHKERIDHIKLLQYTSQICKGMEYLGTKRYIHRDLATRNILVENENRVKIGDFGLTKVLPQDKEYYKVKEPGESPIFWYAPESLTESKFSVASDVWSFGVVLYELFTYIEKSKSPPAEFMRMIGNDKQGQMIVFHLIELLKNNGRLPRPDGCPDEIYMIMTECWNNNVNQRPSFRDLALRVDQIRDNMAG
Tyrosine-protein kinase ABL1 (Homo sapiens), sequence (P00519 whole entry): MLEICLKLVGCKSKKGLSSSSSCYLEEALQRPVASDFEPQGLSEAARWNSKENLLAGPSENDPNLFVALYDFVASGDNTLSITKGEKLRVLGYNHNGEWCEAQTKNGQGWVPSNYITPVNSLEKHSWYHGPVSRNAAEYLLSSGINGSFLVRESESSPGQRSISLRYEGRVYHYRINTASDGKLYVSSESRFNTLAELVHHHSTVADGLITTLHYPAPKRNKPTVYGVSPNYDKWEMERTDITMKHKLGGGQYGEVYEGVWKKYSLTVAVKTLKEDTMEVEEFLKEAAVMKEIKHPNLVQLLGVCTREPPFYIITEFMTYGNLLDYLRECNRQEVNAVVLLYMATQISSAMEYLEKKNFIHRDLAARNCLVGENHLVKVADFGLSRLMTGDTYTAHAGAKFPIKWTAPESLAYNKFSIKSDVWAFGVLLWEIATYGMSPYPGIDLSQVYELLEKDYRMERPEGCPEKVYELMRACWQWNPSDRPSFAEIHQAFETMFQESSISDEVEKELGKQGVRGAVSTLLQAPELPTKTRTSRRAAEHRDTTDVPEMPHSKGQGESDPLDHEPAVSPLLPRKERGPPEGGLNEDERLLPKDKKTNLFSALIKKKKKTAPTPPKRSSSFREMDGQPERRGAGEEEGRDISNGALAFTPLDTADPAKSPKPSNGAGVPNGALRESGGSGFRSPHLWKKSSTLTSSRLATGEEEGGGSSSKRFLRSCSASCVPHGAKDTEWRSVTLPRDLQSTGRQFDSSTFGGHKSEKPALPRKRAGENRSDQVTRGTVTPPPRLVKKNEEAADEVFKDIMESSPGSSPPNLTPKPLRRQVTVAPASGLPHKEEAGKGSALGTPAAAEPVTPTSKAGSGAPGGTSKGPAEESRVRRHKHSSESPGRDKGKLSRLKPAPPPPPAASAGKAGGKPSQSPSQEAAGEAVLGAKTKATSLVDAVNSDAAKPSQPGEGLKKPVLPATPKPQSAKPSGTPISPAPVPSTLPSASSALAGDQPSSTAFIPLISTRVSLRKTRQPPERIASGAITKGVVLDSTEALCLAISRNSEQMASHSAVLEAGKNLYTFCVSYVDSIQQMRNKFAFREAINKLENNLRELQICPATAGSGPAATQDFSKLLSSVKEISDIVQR
Mitogen-activated protein kinase 11 (Homo sapiens), sequence (Q15759 whole entry): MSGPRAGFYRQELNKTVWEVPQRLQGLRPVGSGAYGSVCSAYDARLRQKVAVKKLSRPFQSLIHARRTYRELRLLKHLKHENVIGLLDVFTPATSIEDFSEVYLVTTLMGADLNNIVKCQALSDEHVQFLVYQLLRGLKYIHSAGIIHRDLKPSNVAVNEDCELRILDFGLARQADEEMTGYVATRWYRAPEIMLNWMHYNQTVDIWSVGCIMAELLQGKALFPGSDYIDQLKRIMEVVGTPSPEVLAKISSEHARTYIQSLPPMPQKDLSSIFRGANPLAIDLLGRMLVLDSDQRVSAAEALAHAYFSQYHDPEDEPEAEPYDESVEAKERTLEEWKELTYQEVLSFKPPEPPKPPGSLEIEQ
Tyrosine-protein kinase receptor UFO (Homo sapiens), sequence (P30530 whole entry): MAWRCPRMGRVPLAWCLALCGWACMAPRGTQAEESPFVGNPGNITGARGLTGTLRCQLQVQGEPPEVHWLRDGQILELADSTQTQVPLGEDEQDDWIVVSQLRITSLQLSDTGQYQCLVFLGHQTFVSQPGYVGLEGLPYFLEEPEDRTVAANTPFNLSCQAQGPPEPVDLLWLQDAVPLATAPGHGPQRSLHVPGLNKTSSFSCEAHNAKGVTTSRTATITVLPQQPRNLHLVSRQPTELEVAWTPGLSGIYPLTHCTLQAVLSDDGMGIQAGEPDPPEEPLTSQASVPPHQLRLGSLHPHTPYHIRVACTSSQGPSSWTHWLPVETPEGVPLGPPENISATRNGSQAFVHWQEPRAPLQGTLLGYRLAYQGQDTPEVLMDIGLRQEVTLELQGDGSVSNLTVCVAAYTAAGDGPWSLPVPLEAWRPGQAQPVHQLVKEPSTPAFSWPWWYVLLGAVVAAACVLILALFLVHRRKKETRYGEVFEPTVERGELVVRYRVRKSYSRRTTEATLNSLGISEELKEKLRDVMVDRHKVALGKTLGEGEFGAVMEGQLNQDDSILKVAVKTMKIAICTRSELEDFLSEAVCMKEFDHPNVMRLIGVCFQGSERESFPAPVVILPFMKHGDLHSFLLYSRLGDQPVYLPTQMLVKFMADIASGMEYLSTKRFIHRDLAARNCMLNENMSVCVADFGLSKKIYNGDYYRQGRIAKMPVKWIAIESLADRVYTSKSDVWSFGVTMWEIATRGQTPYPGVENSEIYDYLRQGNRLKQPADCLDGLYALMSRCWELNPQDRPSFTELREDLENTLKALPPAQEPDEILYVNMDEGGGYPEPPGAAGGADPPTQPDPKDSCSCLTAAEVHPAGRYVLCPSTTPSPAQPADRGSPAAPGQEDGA
Calcium/calmodulin-dependent protein kinase kinase 1 (Homo sapiens), sequence (Q8N5S9 whole entry, looked up): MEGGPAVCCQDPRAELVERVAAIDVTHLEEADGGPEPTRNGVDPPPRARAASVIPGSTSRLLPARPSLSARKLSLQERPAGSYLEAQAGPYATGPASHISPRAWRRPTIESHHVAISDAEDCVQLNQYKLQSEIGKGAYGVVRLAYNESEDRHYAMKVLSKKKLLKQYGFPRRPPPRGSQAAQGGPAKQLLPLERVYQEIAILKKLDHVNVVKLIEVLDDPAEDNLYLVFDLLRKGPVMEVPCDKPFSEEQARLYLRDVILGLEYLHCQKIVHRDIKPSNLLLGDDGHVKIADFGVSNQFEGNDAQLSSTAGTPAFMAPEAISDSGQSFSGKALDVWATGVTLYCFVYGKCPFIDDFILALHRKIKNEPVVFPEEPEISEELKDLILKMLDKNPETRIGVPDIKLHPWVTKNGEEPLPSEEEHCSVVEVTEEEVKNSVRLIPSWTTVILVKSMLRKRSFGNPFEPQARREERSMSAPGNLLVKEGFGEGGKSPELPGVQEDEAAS

In the case of `Cc1nc(C2CCN(C(=O)c3ccc(OC(F)(F)F)cc3N)CC2)c2ncc(N3CCN(C)CC3)cc2n1` [BAY-693], the residual activity in experiment [1] is 100%; in [2], 100%; in experiment [3], 100%; in experiment [4], 93%; in [5] it was 100%; in experiment [7] it was 100%. Further, the residual activity in experiment [8] is 100%; in [9] it was 96%; in [10] it was 100%; in [11], 88%; in experiment [12], 86%; in experiment [13] it was 99%. In addition, the residual activity in experiment [14] is 85%; in experiment [15] it was 86%; in experiment [16], 92%; in experiment [17] it was 49%; in experiment [18] it was 100%. Moreover, in experiment [6], the inhibition (as a rule, the change of the read-out against control, counted positive when it falls) was 15%.
As for `CN1CCN(c2cnc3c(C4CCN(C(=O)c5ccc(OC(F)(F)F)cc5N)CC4)ncnc3c2)CC1` [BAY-885], the residual activity was 78% in experiment [1]; 100% in [2]; 100% in experiment [3]; 91% in experiment [4]; 100% in experiment [5]; 84% in [7]. The residual activity in experiment [8] was 100%; in [9] it was 100%; in experiment [10] it was 98%; in [11], 86%; in experiment [12] it was 93%; in experiment [13], 83%. Besides, the residual activity in [14] is 100%; in experiment [15], 100%; in [16] it was 86%; in experiment [17], 38%; in [18], 100%. In addition, the inhibition in experiment [6] is 21.8%.
